Assay: Hepatic Stability Assay (in vitro half-life method)
Assay type: in vitro ADME
Set-up: dose or concentration left out as unconfirmed
Settings: pooled cryopreserved hepatocytes, 37° C., 1×10^6 cells/mL, 0-6 hours, LC-MS/MS, 39.5 hours is the maximum detectable half life, read-out: t½ (converted)
Experimental: Hepatic Stability Assay The metabolic stability of certain compounds disclosed herein was assessed in vitro in pooled cryopreserved hepatocytes using the in vitro half-life method. Incubations were at 37° C. and final concentrations in the incubations were 1×10^6 cells/mL and […] test concentration of the compound. Aliquots were sequentially removed after 0, 1, 3 and 6 hours and analyzed by LC-MS/MS. In vitro half-life was determined by measuring the rate of disappearance of the compound and then scaled to predicted hepatic clearance using the well-stirred model. […] As such, compounds having a value of 39.5 may have a half live that exceeds 39.5 hours.

| SMILES | half-life |
| --- | --- |
| Cc1c(C(=O)C(=O)NC2(C)CS(=O)(=O)C2)c2n(c1C(=O)Nc1cc(F)c(F)c(F)c1)[C@@H]1C[C@@H]1C2 [Example 73, (1aR,6aR)-4-methyl-5-(2-((3-methyl-1,1-dioxidothietan-3-yl)amino)-2-oxoacetyl)-N-(3,4,5-trifluorophenyl)-1,1a,6,6a-tetrahydrocyclopropa[b]pyrrolizine-3-carboxamide] | 16.1 h |
| Cc1c(C(=O)C(=O)NC2(c3c[nH]nn3)CC2)c2n(c1C(=O)Nc1cc(F)cc(F)c1)CCC2 [Example 76, 7-(2-((1-(1H-1,2,3-triazol-4-yl)cyclopropyl)amino)-2-oxoacetyl)-N-(3,5-difluorophenyl)-6-methyl-2,3-dihydro-1H-pyrrolizine-5-carboxamide] | 19.5 h |
| Cc1c(C(=O)C(=O)NC2(c3c[nH]nn3)CC(F)(F)C2)c2n(c1C(=O)Nc1ccnc(C(F)F)c1)[C@@H]1C[C@@H]1C2 [Example 78, (1aR,6aR)-5-(2-((3,3-difluoro-1-(1H-1,2,3-triazol-4-yl)cyclobutyl)amino)-2-oxoacetyl)-N-(2-(difluoromethyl)pyridin-4-yl)-4-methyl-1,1a,6,6a-tetrahydrocyclopropa[b]pyrrolizine-3-carboxamide] | 4.8 h |
| Cc1c(C(=O)C(=O)NC2(c3c[nH]nn3)CC2)c2n(c1C(=O)Nc1ccc(F)c(C#N)c1)[C@@H]1C[C@@H]1C2 [Example 79, (1aR,6aR)-5-(2-((1-(1H-1,2,3-triazol-4-yl)cyclopropyl)amino)-2-oxoacetyl)-N-(3-cyano-4-fluorophenyl)-4-methyl-1,1a,6,6a-tetrahydrocyclopropa[b]pyrrolizine-3-carboxamide] | 14.9 h |
| Cc1c(C(=O)C(=O)NC2(c3c[nH]nn3)CC2)c2n(c1C(=O)Nc1ccc(F)c(F)c1)[C@@H]1C[C@@H]1C2 [Example 81, (1aR,6aR)-5-(2-((1-(1H-1,2,3-triazol-4-yl)cyclopropyl)amino)-2-oxoacetyl)-N-(3,4-difluorophenyl)-4-methyl-1,1a,6,6a-tetrahydrocyclopropa[b]pyrrolizine-3-carboxamide] | 8 h |
| Cc1c(C(=O)C(=O)NC2(c3cnn[nH]3)CC2)c2n(c1C(=O)Nc1cc(Cl)ccc1F)CCC2 [Example 86, 7-(2-((1-(1H-1,2,3-triazol-5-yl)cyclopropyl)amino)-2-oxoacetyl)-N-(5-chloro-2-fluorophenyl)-6-methyl-2,3-dihydro-1H-pyrrolizine-5-carboxamide] | 9.4 h |
| Cc1c(C(=O)C(=O)NC2(c3c[nH]nn3)CC2)c2n(c1C(=O)Nc1cc(Cl)c(F)cc1F)CCC2 [Example 91, 7-(2-((1-(1H-1,2,3-triazol-4-yl)cyclopropyl)amino)-2-oxoacetyl)-N-(5-chloro-2,4-difluorophenyl)-6-methyl-2,3-dihydro-1H-pyrrolizine-5-carboxamide] | 19.6 h |
| CNC(=O)C1(NC(=O)C(=O)c2c(C)c(C(=O)Nc3ccc(F)cc3)n3c2C[C@H]2C[C@H]23)CC(F)(F)C1 [Example 95, (1aR,6aR)-5-(2-((3,3-difluoro-1-(methylcarbamoyl)cyclobutyl)amino)-2-oxoacetyl)-N-(4-fluorophenyl)-4-methyl-1,1a,6,6a-tetrahydrocyclopropa[b]pyrrolizine-3-carboxamide] | 28.8 h |
| CNC(=O)C1(NC(=O)C(=O)c2c(C)c(C(=O)Nc3ccc(F)c(F)c3)n3c2C[C@H]2C[C@H]23)CC(F)(F)C1 [Example 96, (1aR,6aR)-5-(2-((3,3-difluoro-1-(methylcarbamoyl)cyclobutyl)amino)-2-oxoacetyl)-N-(3,4-difluorophenyl)-4-methyl-1,1a,6,6a-tetrahydrocyclopropa[b]pyrrolizine-3-carboxamide] | 22.6 h |
| Cc1c(C(=O)C(=O)NC2(c3cn(C)nn3)CC2)c2n(c1C(=O)Nc1ccc(F)c(Cl)c1)CCC2 [Example 98, N-(3-chloro-4-fluorophenyl)-6-methyl-7-(2-((1-(1-methyl-1H-1,2,3-triazol-4-yl)cyclopropyl)amino)-2-oxoacetyl)-2,3-dihydro-1H-pyrrolizine-5-carboxamide] | 14.8 h |
| Cc1c(C(=O)C(=O)NC2(c3cnn[nH]3)CC2)c2n(c1C(=O)Nc1ccc(F)cc1)[C@@H]1C[C@@H]1C2 [Example 99, (1aR,6aR)-5-(2-((1-(1H-1,2,3-triazol-5-yl)cyclopropyl)amino)-2-oxoacetyl)-N-(4-fluorophenyl)-4-methyl-1,1a,6,6a-tetrahydrocyclopropa[b]pyrrolizine-3-carboxamide] | 9.6 h |
| Cc1c(C(=O)C(=O)NC2(c3c[nH]nn3)CC2)c2n(c1C(=O)Nc1cc(F)cc(Cl)c1)CCC2 [Example 101, 7-(2-((1-(1H-1,2,3-triazol-4-yl)cyclopropyl)amino)-2-oxoacetyl)-N-(3-chloro-5-fluorophenyl)-6-methyl-2,3-dihydro-1H-pyrrolizine-5-carboxamide] | 7 h |
| Cc1c(C(=O)C(=O)NC2(c3c[nH]nn3)CC2)c2n(c1C(=O)Nc1cccc(C(F)F)c1)CCC2 [Example 103, 7-(2-((1-(1H-1,2,3-triazol-4-yl)cyclopropyl)amino)-2-oxoacetyl)-N-(3-(difluoromethyl)phenyl)-6-methyl-2,3-dihydro-1H-pyrrolizine-5-carboxamide] | 8.5 h |
| Cc1c(C(=O)C(=O)NC2(CO)CC(F)(F)C2)c2n(c1C(=O)Nc1ccc(F)c(Cl)c1)CCC2 [Example 117, N-(3-chloro-4-fluorophenyl)-7-(2-((3,3-difluoro-1-(hydroxymethyl)cyclobutyl)amino)-2-oxoacetyl)-6-methyl-2,3-dihydro-1H-pyrrolizine-5-carboxamide] | 10.5 h |
| Cc1c(C(=O)C(=O)NC2(CO)CC(F)(F)C2)c2n(c1C(=O)Nc1ccc(F)c(F)c1)CCC2 [Example 118, 7-(2-((3,3-difluoro-1-(hydroxymethyl)cyclobutyl)amino)-2-oxoacetyl)-N-(3,4-difluorophenyl)-6-methyl-2,3-dihydro-1H-pyrrolizine-5-carboxamide] | 15.2 h |
| Cc1c(C(=O)C(=O)NC2(C(F)(F)F)COC2)c2n(c1C(=O)Nc1ccnc(C(F)F)c1)[C@@H]1C[C@@H]1C2 [Example 119, (1aR,6aR)—N-(2-(difluoromethyl)pyridin-4-yl)-4-methyl-5-(2-oxo-2-((3-(trifluoromethyl)oxetan-3-yl)amino)acetyl)-1,1a,6,6a-tetrahydrocyclopropa[b]pyrrolizine-3-carboxamide] | 11 h |
| Cc1c(C(=O)C(=O)NC2(C(N)=O)CC(F)(F)C2)c2n(c1C(=O)Nc1ccc(F)c(Cl)c1)CCC2 [Example 120, 7-(2-((1-carbamoyl-3,3-difluorocyclobutyl)amino)-2-oxoacetyl)-N-(3-chloro-4-fluorophenyl)-6-methyl-2,3-dihydro-1H-pyrrolizine-5-carboxamide] | 13.5 h |
| Cc1c(C(=O)C(=O)NC2(C(N)=O)CC(F)(F)C2)c2n(c1C(=O)Nc1ccc(F)c(F)c1)CCC2 [Example 121, 7-(2-((1-carbamoyl-3,3-difluorocyclobutyl)amino)-2-oxoacetyl)-N-(3,4-difluorophenyl)-6-methyl-2,3-dihydro-1H-pyrrolizine-5-carboxamide] | 19.8 h |
| Cc1c(C(=O)C(=O)NC2(C(=O)N(C)C)CC(F)(F)C2)c2n(c1C(=O)Nc1ccc(F)c(Cl)c1)CCC2 [Example 124, N-(3-chloro-4-fluorophenyl)-7-(2-((1-(dimethylcarbamoyl)-3,3-difluorocyclobutyl)amino)-2-oxoacetyl)-6-methyl-2,3-dihydro-1H-pyrrolizine-5-carboxamide] | 1 h |
| Cc1c(C(=O)C(=O)NC2(C(=O)N(C)C)CC(F)(F)C2)c2n(c1C(=O)Nc1ccc(F)c(F)c1)CCC2 [Example 125, N-(3,4-difluorophenyl)-7-(2-((1-(dimethylcarbamoyl)-3,3-difluorocyclobutyl)amino)-2-oxoacetyl)-6-methyl-2,3-dihydro-1H-pyrrolizine-5-carboxamide] | 1.9 h |
| CNC(=O)C1(NC(=O)C(=O)c2c(C)c(C(=O)Nc3ccc(F)c(Cl)c3F)n3c2CCC3)CC(F)(F)C1 [Example 127, N-(3-chloro-2,4-difluorophenyl)-7-(2-((3,3-difluoro-1-(methylcarbamoyl)cyclobutyl)amino)-2-oxoacetyl)-6-methyl-2,3-dihydro-1H-pyrrolizine-5-carboxamide] | 15.2 h |
| CNC(=O)C1(NC(=O)C(=O)c2c(C)c(C(=O)Nc3cc(F)c(F)c(Cl)c3)n3c2CCC3)CC(F)(F)C1 [Example 129, N-(3-chloro-4,5-difluorophenyl)-7-(2-((3,3-difluoro-1-(methylcarbamoyl)cyclobutyl)amino)-2-oxoacetyl)-6-methyl-2,3-dihydro-1H-pyrrolizine-5-carboxamide] | 20.8 h |
| Cc1c(C(=O)C(=O)NC2(C#N)CC(F)(F)C2)c2n(c1C(=O)Nc1ccc(F)c(Cl)c1)CCC2 [Example 130, N-(3-chloro-4-fluorophenyl)-7-(2-((1-cyano-3,3-difluorocyclobutyl)amino)-2-oxoacetyl)-6-methyl-2,3-dihydro-1H-pyrrolizine-5-carboxamide] | 6.6 h |
| Cc1c(C(=O)C(=O)NC2(C#N)CC(F)(F)C2)c2n(c1C(=O)Nc1ccc(F)c(F)c1)CCC2 [Example 131, 7-(2-((1-cyano-3,3-difluorocyclobutyl)amino)-2-oxoacetyl)-N-(3,4-difluorophenyl)-6-methyl-2,3-dihydro-1H-pyrrolizine-5-carboxamide] | 7.6 h |
| Cc1c(C(=O)C(=O)N[C@](C)(CO)C(F)(F)F)c2n(c1C(=O)Nc1ccc(F)c(F)c1)CCC2 [Example 133, (R)—N-(3,4-difluorophenyl)-6-methyl-7-(2-oxo-2-((1,1,1-trifluoro-3-hydroxy-2-methylpropan-2-yl)amino)acetyl)-2,3-dihydro-1H-pyrrolizine-5-carboxamide] | 12.5 h |
